Counter-ions that a name gives are not always drawn. Like-named read-outs stand apart in the source and are kept apart here.
System: convulsion induced by picrotoxine in mice
Experiment: Protection against picrotoxine-induced convulsion (suppression of the tonic extension phase)
Type: in vivo, male Swiss mice
Details: for responders at 50 mg/kg / responders at 100 mg/kg / ED50: Mus musculus; for responders at 50 mg/kg: 0.5 h, read-out: i.p.: % prot. (percentage of protected animals), 50 mg/kg i.p., picrotoxine 24 mg/kg i.p. 30 min later; for responders at 100 mg/kg: 1 h, read-out: p.o.: % prot. (percentage of protected animals), 100 mg/kg p.o., picrotoxine 24 mg/kg i.p. 60 min later; for i.p.: % prot. (percentage of protected animals): 50 mg/kg i.p., picrotoxine 24 mg/kg i.p. 30 min later
Excerpt: The psychotropic properties of the compounds have been determined by the protection of the induced convulsion by picrotoxine for mice, which is achieved by the method derived from that of Krall et al., "Epilepsia", 1978, 19, p. 409-428.
The administration of picrotoxine caused a convulsive crisis in the animal characterised by a myoclonic extension syndrome followed by the extension of the limbs causing the animal to die. Certain substances, particularly those active on the complex GABA/benzodiazepines/Cl-ionophore makes it possible to protect the animals from this convulsive crisis.
In practice the study is carried out on batches of 10 male "Swiss" mice weighing approximately 20 g, which are administered with the product to be studied in aqueous solution either by intraperitoneal route (i.p.) at the rate of 50 mg/kg and in a volume of 0.2 ml of solution per animal, or by oral route (p.o) in a volume of 2.0 ml of solution per animal.
An injection of a solution of picrotoxine at the rate of 24 mg/kg in a volume of 0.2 ml per animal is then administered by interperitoneal route, either 30 minutes after administering the product by interperitoneal route or 60 minutes after administering the product by oral route. The dose of the product injected causing a clonic crisis, which results in untreated animals dying. The suppression of the extension tonic phase in the animals treated under the conditions of the test is observed. The results are expressed:
either in percentages of protected animals of this phase to the reaction of 50 mg/kg of the compound of the study administered by i.p. route or 100 mg/kg by p.o route,
or in DE50 for each of these routes, which is the efficient dosage of the test compound expressed in mg/kg protecting 50% of the animals of this extension phase. The significant value of the results being generally indicated in the following manner:
* Significant result at p<0.05
** Significant result at p<0.01
*** Significant highly significant at p<0.001.

[1] = ip, * p<0.05, ** p<0.01, *** p<0.001
[2] = po, * p<0.05, ** p<0.01, *** p<0.001
[3] = * p<0.05, ** p<0.01, *** p<0.001

SMILES | responders at 50 mg/kg [1] [%] | responders at 100 mg/kg [2] [%] | other results
CCC(C[C@@H]1C[C@H]1c1ccccc1)(c1cc(OC)c(OC)c(OC)c1)N(C)C (relative stereo) [Example 54, trans N,N-dimethyl-a-ethyl-a-(2-phenyl-1-cyclopropylmethyl)-3,4,5-trimethoxybenzylamine] | 70 | – | –
CCC(C[C@@H]1C[C@H]1c1ccccc1)(c1ccccn1)N(C)C (relative stereo) [Example 58, trans N,N-dimethyl-a-ethyl-a-(2-phenyl-1-cyclopropylmethyl)-(2-pyridyl)methanamine] | 70 | 80 | –
CCC(C[C@@H]1C[C@H]1c1ccccc1)(c1ccco1)N(C)C (relative stereo) [Example 60, trans N,N-dimethyl-a-ethyl-a-(2-phenyl-1-cyclopropylmethyl)-2-furfurylamine] | 80 | 60 | –
CCC(C[C@@H]1C[C@H]1c1ccccc1)(c1cccs1)N(C)C (relative stereo) [Example 63, trans N,N-dimethyl-a-ethyl-a-(2-phenyl-1-cyclopropylmethyl)-2-thienylmethylmaine] | 60 | 50 | –
CCC(C[C@@H]1C[C@H]1c1ccccc1)(c1ccsc1)N(C)C (relative stereo) [Example 68, trans N,N-dimethyl-a-ethyl-a-(2-phenyl-1-cyclopropylmethyl)-3-trienylmethylamine] | 100 | – | –
CCC(N)(CC=Cc1ccccc1)c1ccccc1 (single isomer, unassigned) [Example 16A, (-) tartrate of (+) a-cinnamyl-a-ethyl-benzylamine] | 90 | 100 | –
CCC(N)(CC=Cc1ccccc1)c1ccccc1 (single isomer, unassigned) [Example 16B, (+) tartrate of (-)a-cinnamyl-a-ethyl benzylamine] | – | – | i.p.: % prot. (percentage of protected animals) [3]: 100%; p.o.: % prot. (percentage of protected animals) (100 mg/kg p.o., picrotoxine 24 mg/kg i.p. 60 min later, * p<0.05, ** p<0.01, *** p<0.001): 100%
CCC(N)(CC=Cc1ccccc1)c1ccc(Cl)cc1 (single isomer, unassigned; (+)) [Example 17A, (+) a-cinnamyl-a-ethyl-p.chlorobenzylamine] | 80 | 50 | –
CCC(CC=Cc1ccccc1)(NC)c1ccccc1 (single isomer, unassigned; (+)) [Example 29, (+) a-cinnamyl-a-ethyl-N-methyl benzylamine] | – | – | i.p.: % prot. (percentage of protected animals) [3]: 100%
CCC(CC=Cc1ccccc1)(c1ccccc1)N(C)C (single isomer, unassigned; (+)) [Example 50, (+) a-cinnamyl-N,N-dimethyl-a-ethyl-benzylamine] | – | – | i.p.: % prot. (percentage of protected animals) [3]: 100%
CCC(CC=Cc1ccccc1)(NC)c1ccccc1 (single isomer, unassigned; (-)) [Example 28, (-) a-cinnamyl-a-ethyl-N-methyl benzylamine] | 100 | 100 | –
CCC(CC=Cc1ccccc1)(c1ccccc1)N(C)C (single isomer, unassigned; (-)) [Example 49, (-)a-cinnamyl-N,N-dimethyl-a-ethylbenzylamine] | 100 | 100 | –
CCC(N)(CC=Cc1ccccc1)c1ccccc1 (centres unmarked) [Example 3, a-cinnamyl-a-ethyl-benzylamine] | 80 | 100 | –
CCC(N)(CC=Cc1ccccc1)c1ccc(Cl)cc1 (centres unmarked) [Example 4, a-cinnamyl-a-ethyl-p.chlorobenzylamine] | 60 | – | –
CCC(N)(CC=Cc1ccccc1)c1ccc(Cl)c(Cl)c1 (centres unmarked) [Example 5, a-cinnamyl-a-ethyl-3,4 dichlorobenzylamine] | 50 | – | –
CCC(N)(CC=Cc1ccccc1)c1ccc(C)cc1 (centres unmarked) [Example 6, a-cinnamyl-a-ethyl-p.methylbenzylamine] | 70 | 70 | –
CCC(N)(CC=Cc1ccccc1)c1cccc(C(F)(F)F)c1 (centres unmarked) [Example 7, a-cinnamyl-a-ethyl-(m.trifluoromethyl)benzylamine] | 100 | – | –
CCC(N)(CC=Cc1ccccc1)c1ccc(OC)cc1 (centres unmarked) [Example 8, a-cinnamyl-a-ethyl-p.metoxybenzylamine] | 80 | – | –
CC(N)(CC=Cc1ccc(Cl)c(Cl)c1)c1ccccc1 (centres unmarked) [Example 9, a-(3',4'-dichloro) cinnamyl-a-methylbenzylamine] | 100 | – | –
CCC(N)(CC=Cc1ccc(Cl)c(Cl)c1)c1ccccc1 (centres unmarked) [Example 10, a-(3',4'-dichloro) cinnamyl-a-ethyl-benzylamine] | 90 | – | –

SMILES | responders at 50 mg/kg [1] [%] | responders at 100 mg/kg [2] [%] | other results
CC(C)C(N)(CC=Cc1ccc(Cl)c(Cl)c1)c1ccccc1 (centres unmarked) [Example 11, a-(3',4'-dichloro)cinnamyl-a-isopropylbenzylamine] | 70 | 100 | –
CCC(N)(CC=Cc1ccc(Cl)c(Cl)c1)c1ccc(C)cc1 (centres unmarked) [Example 12, a-(3',4'-dichloro)cinnamyl-a-ethyl-p.methylbenzylamine] | – | – | ED50 (ip, read-out: i.p.: DE50): 37.3 mg/kg; ED50 (po, read-out: p.o.: DE50): 50 mg/kg
CCC(N)(CC=Cc1ccc(Cl)c(Cl)c1)c1ccc(OC)cc1 (centres unmarked) [Example 13] | – | 50 | ED50 (ip, read-out: i.p.: DE50): 23.2 mg/kg
CCC(N)(CC=Cc1ccc(Cl)c(Cl)c1)c1cccc(C(F)(F)F)c1 (centres unmarked) [Example 15, a-(3',4'-dichloro)cinnamyl-a-ethyl-m.trifluoromethylbenzylamin] | – | – | ED50 (ip, read-out: i.p.: DE50): > 25 mg/kg
CCC(CC=Cc1ccccc1)(NC)c1ccccc1 (centres unmarked) [Example 18, a-cinnamyl-a-ether-N-methyl-benzylamine] | 80 | 100 | –
CCC(CC=Cc1ccccc1)(NC)c1ccc(Cl)c(Cl)c1 (centres unmarked) [Example 20, a-cinnamyl-a-ethyl-N-methyl-3,4-dichlorobenzylamine] | – | 80 | –
CCC(CC=Cc1ccccc1)(NC)c1cccc(C(F)(F)F)c1 (centres unmarked) [Example 21, a-cinnamyl-a-ethyl-N-methyl-(m.trifluoromethyl)benzylamine] | 90 | 70 | –
CCC(CC=Cc1ccccc1)(NC)c1ccc(OC)cc1 (centres unmarked) [Example 22, a-cinnamyl-a-ethyl-N-methyl-p.methoxybenzylamine] | 80 | 100 | –
CCC(CC=Cc1ccccc1)(c1ccccc1)N(C)C (centres unmarked) [Example 30, a-cinnamyl-N,N-dimethyl-a-ethyl-benzylamine] | 100 | 100 | –
CCC(CC=Cc1ccccc1)(c1ccc(Cl)c(Cl)c1)N(C)C (centres unmarked) [Example 32, a-cinnamyl-N,N-dimethyl-a-ethyl-(3,4-dichloro)benzylamine] | 50 | 60 | –
CCC(CC=Cc1ccccc1)(c1ccc(C(F)(F)F)cc1)N(C)C (centres unmarked) [Example 34, a-cinnamyl-N,N-dimethyl-a-ethyl-p.trifluoromethylbenzylamine] | 80 | 60 | –
C=CCN(C)C(CC)(CC=Cc1ccccc1)c1ccccc1 (centres unmarked) [Example 38, N-allyl-a-cinnamyl-a-ethyl-N-methylbenzylamine] | 80 | – | –
CN(C)C(C)(CC=Cc1ccccc1)c1ccccc1 (centres unmarked) [Example 40, a-cinnamyl-N,N-dimethyl-a-methyl-benzylamine] | – | – | ED50 (ip, read-out: i.p.: DE50): 16.6 mg/kg; ED50 (po, read-out: p.o.: DE50): 37.7 mg/kg
CC(C)C(CC=Cc1ccccc1)(c1ccccc1)N(C)C (centres unmarked) [Example 41, a-cinnamyl-N,N-dimethyl-a-isopropylbenzylamine] | – | – | ED50 (po, read-out: p.o.: DE50): 78.4 mg/kg
CCCCCC(CC=Cc1ccccc1)(c1ccccc1)N(C)C (centres unmarked) [Example 42, a-cinnamyl-N,N-dimethyl-a-pentyl-benzylamine] | – | – | ED50 (po, read-out: p.o.: DE50): 65 mg/kg
CCCN(C)C(CC)(CC=Cc1ccccc1)c1ccccc1 (centres unmarked) [Example 47, a-cinnamyl-a-ethyl-N-methyl-N-propylbenzylamine] | – | – | ED50 (ip, read-out: i.p.: DE50): 58.2 mg/kg; ED50 (po, read-out: p.o.: DE50): 65 mg/kg
CN(C)C(C)(CC=Cc1ccc(Cl)c(Cl)c1)c1ccccc1 (centres unmarked) [Example 48, a-(3.4 dichloro)cinnamyl-N,N-dimethyl-a-methyl-benzylamine] | 90 | – | –
CCC(CC=Cc1cccs1)(c1ccccc1)N(C)C (centres unmarked) [Example 55, N,N-dimethyl-a-ethyl-a-[30(2-thienyl)-2-propenyl]-benzylamine] | 70 | 70 | –
CCC(CC=Cc1ccsc1)(c1ccccc1)N(C)C (centres unmarked) [Example 56, N,N-dimethyl-a-ethyl-a-[30(3-thienyl)-2-propenyl]-benzylamine] | 70 | 80 | –

From patent publication US5017723A, “Substituted ethylamines, their preparation process, their use as medicine and their synthesising agents” (Jouveinal S.A., priority 1990, dated 1991)
